Experimental data as given in ChEMBL document CHEMBL1201862, “PubChem BioAssay data set” (2004).
Values joined by “and” are separate entries in the source; they are usually repeats but may differ in a detail not shown here. Equal values may be shown once.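 Five concentrations, 48 hours, 96-well plates. At the GI50, growth is halved.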 Active and inactive are the calls of the source. No stated cut-off is given here; in the data, active = GI50 up to about 1.1 µM and inactive = higher.

Key:
Test in all cases: growth of human tumour cells (NCI), 48 h
RPMI-8226 = system: RPMI-8226
TK-10 = system: TK-10
OVCAR-3 = system: OVCAR-3
SK-OV-3 = system: SK-OV-3
MOLT-4 = system: MOLT-4
SR = system: SR
SF-539 = system: SF-539
A549 = system: A549
T47D = system: T47D
HOP-92 = system: HOP-92
SN12C = system: SN12C
SK-MEL-5 = system: SK-MEL-5
COLO 205 = system: COLO 205
MCF7 = system: MCF7
IGROV-1 = system: IGROV-1
NCI-H522 = system: NCI-H522
HCT-116 = system: HCT-116
SW-620 = system: SW-620
CCRF-CEM = system: CCRF-CEM

Structure (SMILES)	GI50 (RPMI-8226)	GI50 (TK-10)	GI50 (OVCAR-3)	GI50 (SK-OV-3)	GI50 (MOLT-4)	GI50 (SR)	GI50 (SF-539)	GI50 (A549)	GI50 (T47D)	GI50 (HOP-92)	GI50 (SN12C)	GI50 (SK-MEL-5)	GI50 (COLO 205)	GI50 (MCF7)	GI50 (IGROV-1)	GI50 (NCI-H522)	GI50 (HCT-116)	GI50 (SW-620)	GI50 (CCRF-CEM)
COC(=O)C1=COC(C)C2CN3CCc4c([nH]c5cc(OC)c(OC)cc45)C3CC12 (stereo unspecified)	27.9 µM (inactive)	> 100 µM (inactive) and 87.1 µM (inactive)	58.3 µM (inactive)	> 100 µM (inactive)	35.5 µM (inactive) and 28.6 µM (inactive)	31 µM (inactive) and 58.6 µM (inactive)	> 100 µM (inactive) and 66.7 µM (inactive)	96.8 µM (inactive) and 49.5 µM (inactive)	40.6 µM (inactive) and 34.6 µM (inactive)	22 µM (inactive) and 40.8 µM (inactive)	> 100 µM (inactive) and 68.1 µM (inactive)	50.4 µM (inactive) and 36.8 µM (inactive)	34.9 µM (inactive) and 29.9 µM (inactive)						
CCN1CSC(=S)N(CC)C1	50.9 µM (inactive)	> 100 µM (inactive)	37.8 µM (inactive)	> 100 µM (inactive)	34.4 µM (inactive)		27.7 µM (inactive)	> 100 µM (inactive)	> 100 µM (inactive)	> 100 µM (inactive)	> 100 µM (inactive)	76.9 µM (inactive)	54.8 µM (inactive)	41 µM (inactive)	75.3 µM (inactive)	22.6 µM (inactive)	41.3 µM (inactive)	36.6 µM (inactive)	71.6 µM (inactive)
COc1ccc(-n2cnc3c(N)nc(N)nc32)cc1	> 100 µM (inactive)	85.7 µM (inactive)	> 100 µM (inactive)	> 100 µM (inactive)	34 µM (inactive)		49.5 µM (inactive)	93.3 µM (inactive)	> 100 µM (inactive)	> 100 µM (inactive)	53.6 µM (inactive)	> 100 µM (inactive)	> 100 µM (inactive)	90.8 µM (inactive)	56.9 µM (inactive)	> 100 µM (inactive)	> 100 µM (inactive)	> 100 µM (inactive)	25.4 µM (inactive)
C1CC2CN(CCCN3CCOCC3)C(C1)O2 (stereo unspecified)	> 100 µM (inactive)	> 100 µM (inactive)	> 100 µM (inactive)	> 100 µM (inactive)	> 100 µM (inactive)		> 100 µM (inactive)	> 100 µM (inactive)	> 100 µM (inactive)	> 100 µM (inactive)	> 100 µM (inactive)	> 100 µM (inactive)	> 100 µM (inactive)	> 100 µM (inactive)	> 100 µM (inactive)	> 100 µM (inactive)	> 100 µM (inactive)	> 100 µM (inactive)	
O=C1C(=O)N(c2cccc(C(F)(F)F)c2)C(=S)N1c1ccccc1	36.2 µM (inactive)	2.84 µM (inactive)		19.3 µM (inactive)	38 µM (inactive)	37.2 µM (inactive)	26.1 µM (inactive)	33.3 µM (inactive)	25.4 µM (inactive)	19.1 µM (inactive)	34.4 µM (inactive)	17.9 µM (inactive)	16.4 µM (inactive)		22.4 µM (inactive)	6.44 µM (inactive)	31.7 µM (inactive)	36.2 µM (inactive)	35.9 µM (inactive)
O=C1CCCC(=O)N1n1c(Cc2ccc(Cl)cc2)n[nH]c1=O	> 100 µM (inactive)	> 100 µM (inactive)	> 100 µM (inactive)	> 100 µM (inactive)	> 100 µM (inactive)		> 100 µM (inactive)	> 100 µM (inactive)	> 100 µM (inactive)		> 100 µM (inactive)	> 100 µM (inactive)	> 100 µM (inactive)	> 100 µM (inactive)	> 100 µM (inactive)	> 100 µM (inactive)	> 100 µM (inactive)	> 100 µM (inactive)	> 100 µM (inactive)
CNC(=O)N1N[C@H](c2ccccc2)[C@@H]1c1ccccc1.OB(O)O		40.4 µM (inactive)	17 µM (inactive)	34 µM (inactive)	18.7 µM (inactive)	18.4 µM (inactive)	17.9 µM (inactive)	28.4 µM (inactive)		26.3 µM (inactive)	25.5 µM (inactive)	16.3 µM (inactive)	20 µM (inactive)	24 µM (inactive)	18.6 µM (inactive)		17.9 µM (inactive)	28.4 µM (inactive)	32.4 µM (inactive)
O=[N+]([O-])c1ccc2c(c1)Sc1ccccc1N2	5.79 µM (inactive)	> 100 µM (inactive)	> 100 µM (inactive)		6.34 µM (inactive)	12 µM (inactive)	> 100 µM (inactive)	8.51 µM (inactive)		6.12 µM (inactive)	> 100 µM (inactive)	9.33 µM (inactive)	32.9 µM (inactive)	44.6 µM (inactive)	17.7 µM (inactive)	6.73 µM (inactive)	9.57 µM (inactive)	43.9 µM (inactive)	20.7 µM (inactive)
COc1ccccc1NS(=O)(=O)c1ccc2ncn(NS(=O)(=O)c3ccc(Cl)cc3)c(=O)c2c1	26.9 µM (inactive)	> 100 µM (inactive)	> 100 µM (inactive)	> 100 µM (inactive)	> 100 µM (inactive)	63.8 µM (inactive)	> 100 µM (inactive)	75 µM (inactive)		> 100 µM (inactive)	> 100 µM (inactive)		> 100 µM (inactive)	> 100 µM (inactive)	> 100 µM (inactive)	> 100 µM (inactive)	> 100 µM (inactive)	> 100 µM (inactive)	54.7 µM (inactive)
CC(C)(C)N1CC2(CCCCC2)C1=O	> 100 µM (inactive)	> 100 µM (inactive)	> 100 µM (inactive)	> 100 µM (inactive)	> 100 µM (inactive)	> 100 µM (inactive)	> 100 µM (inactive)	> 100 µM (inactive)		> 100 µM (inactive)	> 100 µM (inactive)	> 100 µM (inactive)	> 100 µM (inactive)		> 100 µM (inactive)	> 100 µM (inactive)	> 100 µM (inactive)	> 100 µM (inactive)	> 100 µM (inactive)
COc1cc(/C=C2/Oc3c(OC)cccc3C2=O)ccc1O	53.2 µM (inactive)	> 100 µM (inactive)	61.2 µM (inactive)	92 µM (inactive)	50.4 µM (inactive)	29.9 µM (inactive)		> 100 µM (inactive)		> 100 µM (inactive)	> 100 µM (inactive)	34.8 µM (inactive)	45.8 µM (inactive)	> 100 µM (inactive)	64.6 µM (inactive)	24.7 µM (inactive)	76.9 µM (inactive)	> 100 µM (inactive)	60.1 µM (inactive)
Cc1cc([N+](=O)[O-])c(C)c2c1[nH]c1ccc(/C(CCC3CCCC3)=N\N)cc12	20.3 µM (inactive)	14.2 µM (inactive)	20 µM (inactive)		11.9 µM (inactive)	19.6 µM (inactive)	17.3 µM (inactive)	17.6 µM (inactive)			14.8 µM (inactive)	18.2 µM (inactive)	17.5 µM (inactive)			16.4 µM (inactive)	9.89 µM (inactive)	16.5 µM (inactive)	10.4 µM (inactive)
CN(C)c1ccc(/N=N/c2ccc3[nH]cnc3c2)cc1	19.5 µM (inactive)	22.5 µM (inactive)		> 10 µM (inactive)	21.8 µM (inactive)	25.1 µM (inactive)	17.8 µM (inactive)	29.7 µM (inactive)	29.5 µM (inactive)		22 µM (inactive)	30.3 µM (inactive)	19.3 µM (inactive)		34.5 µM (inactive)	19.3 µM (inactive)	18 µM (inactive)	29.6 µM (inactive)	19.4 µM (inactive)
Cc1ccc(S(=O)(=O)Oc2nc3ccccc3nc2OS(=O)(=O)c2ccc(C)cc2)cc1	40.9 µM (inactive)	> 100 µM (inactive)	> 100 µM (inactive)	> 100 µM (inactive)	71.3 µM (inactive)	54.7 µM (inactive)	> 100 µM (inactive)	> 100 µM (inactive)			> 100 µM (inactive)	28.5 µM (inactive)	> 100 µM (inactive)	> 100 µM (inactive)	> 100 µM (inactive)	16.9 µM (inactive)	> 100 µM (inactive)	25.9 µM (inactive)	31.6 µM (inactive)
COc1c2c(cc3nc4ccccc4nc13)CC[C@H](NC(C)=O)c1cc(=O)c(SC)ccc1-2	0.538 µM (active)	8.07 µM (inactive)	0.785 µM (active)	5.28 µM (inactive)	0.555 µM (active)	0.322 µM (active)	0.304 µM (active)	4.29 µM (inactive)		5.75 µM (inactive)	2.79 µM (inactive)	0.412 µM (active)	0.283 µM (active)	0.327 µM (active)	0.236 µM (active)	0.275 µM (active)	0.46 µM (active)	0.582 µM (active)	0.532 µM (active)
O=C(OCc1ccc([N+](=O)[O-])cc1)N1c2ccccc2[C@@]23O[C@]24CCC[C@H]3C#C/C=C\C#C[C@H]14		> 100 µM (inactive)	> 100 µM (inactive)	> 100 µM (inactive)	3.27 µM (inactive)		> 100 µM (inactive)	8.77 µM (inactive)	> 100 µM (inactive)	> 100 µM (inactive)	> 100 µM (inactive)	> 100 µM (inactive)	65.6 µM (inactive)	8.18 µM (inactive)	> 100 µM (inactive)	25.8 µM (inactive)	> 100 µM (inactive)	72.9 µM (inactive)	12.9 µM (inactive)
